In patent US9820996B2, “Preparation method for antithyroid ointment for external application” (priority 2014, dated 2017):
“Also recorded” adds a separate entry of the source.

Tested on: hyperthyroidism patients
Assay: Typical cases of clinical treatment (case reports)
Assay type: in vivo, human
Conditions: propylthiouracil and methimazole taken successively
Text: The present example includes following typical cases of clinical treatment.

SMILES: Cn1cc[nH]c1=S [methimazole]
- adverse reaction that led to discontinuing oral treatment (patient history): severe drug-induced liver damage; also recorded: severe neutropenia; also recorded: acute urticaria

SMILES: CCCc1cc(=O)[nH]c(=S)[nH]1 [propylthiouracil]
- adverse reaction that led to discontinuing oral treatment (patient history): severe drug-induced liver damage; also recorded: severe neutropenia; also recorded: acute urticaria
